Data on 16 compounds can be found in patent publication US9321753B2, “Inhibitors of Flaviviridae viruses” (Gilead Sciences, Inc., priority 2010, dated 2016).

The test system of one test is HCV replicon. Briefly: HCV replicon assay in human hepatoma Huh-7 cell line (luciferase readout). Format: cell-based. The note with it: 2 μM; Huh-7 HCV replicon cells, 3 days incubation; inhibition of viral replication. Here is the method:
The anti-HCV activity of the compounds of this invention was tested in a human hepatoma Huh-7 cell line harboring a HCV replicon. The assay comprised the following steps:
Serial dilution was performed in 100% DMSO in a 384-well plate. A solution containing a compound at 225-fold concentration of the starting final serial dilution concentration was prepared in 100% DMSO and 15 uL added to the pre-specified wells in column 3 or 13 of a polypropylene 384-well plate. The rest of the 384-well plate was filled with 10 uL 100% DMSO except for columns 23 and 24, where 10 uL of 500 uM a HCV protease inhibitor (ITMN-191) in 100% DMSO was added. The HCV protease inhibitor was used a control of 100% inhibition of HCV replication. The plate was then placed on a Biomek FX Workstation to start the serial dilution. The serial dilution was performed for ten cycles of 3-fold dilution from column 3 to 12 or from column 13 to 22.
To each well of a black polypropylene 384-well plate, 90 μL of cell media containing 1600 suspended Huh-7 HCV replicon cells was added with a Biotek uFlow Workstation. A volume of 0.4 μL of the compound solution was transferred from the serial dilution plate to the cell culture plate on a Biomek FX Workstation. The DMSO concentration in the final assay condition was 0.44%. The plates were incubated for 3 days at 37° C. with 5% CO2 and 85% humidity.
a) Assessment of cytotoxicity: The media in the 384-well cell culture plate was aspirated with a Biotek EL405 plate-washer. A volume of 50 μL of a solution containing 400 nM Calcein AM in 100% PBS was added to each well of the plate with a Biotek uFlow Workstation. The plate was incubated for 30 minutes at room temperature before the fluorescence signal ([…]) was measured with a Perkin Elmer Envision Plate Reader.
b) Assessment of inhibition of viral replication: The calcein-PBS solution in the 384-well cell culture plate was aspirated with a Biotek EL405 plate-washer. A volume of 20 μL of Dual-Glo luciferase buffer (Promega, Dual-Glo Luciferase Assay Reagent, cat. #E298B) was added to each well of the plate with a Biotek uFlow Workstation. The plate was incubated for 10 minutes at room temperature. A volume of 20 μL of a solution containing 1:100 mixture of Dual-Glo Stop & Glo substrate (Promega, Dual-Glo Luciferase Assay Reagent, cat. #E313B) and Dual-Glo Stop & Glo buffer (Promega, Dual-Glo Luciferase Assay Reagent, cat #E314B) was then added to each well of the plate with a Biotek uFlow Workstation. The plate was incubated at room temperature for 10 minutes before the luminescence signal was measured with a Perkin Elmer Envision Plate Reader.
The percent cytotoxicity was determined by calcein AM conversion to fluorescent product. The average fluorescent signal from the DMSO control wells were defined as 100% nontoxic. The individual fluorescent signal from testing compound treated well was divided by the average signal from DMSO control wells and then multiplied by 100% to get the percent viability. The percent anti-HCV replication activity was determined by the luminescence signal from the testing well compared to DMSO controls wells. The background signal was determined by the average luminescence signal from the HCV protease inhibitor treated wells and was subtracted from the signal from the testing wells as well as the DMSO control wells. Following 3-fold serial dilutions, the EC50 and CC50 values were calculated by fitting % inhibition at each concentration to the following equation: % inhibition=100%/[(EC50/[I])^b+1]
Where b is Hill's coefficient. See, for reference, Hill, A. V., The Possible Effects of the Aggregation of the Molecules of Haemoglobin on its Dissociation Curves, J. Physiol. 40: iv-vii. (1910).
% inhibition values at a specific concentration, for example 2 μM, can also be derived from the formula above.
As for `CC1=CCC(C(=O)N(c2cc(C#CC(C)(C)C)sc2C(=O)O)[C@H]2CC[C@](O)(CO[C@H]3CCOC3)CC2)[C@H](C)C1` (single isomer, unassigned) [Compound 5B, 5-(3,3-dimethyl-but-1-ynyl)-3-{(4,6R-dimethyl-cyclohex-3-enecarbonyl)-[4-hydroxy-4-(tetrahydro-furan-3-yloxymethyl)-cyclohexyl]-amino}-thiophene-2-carboxylic acid], the “% inhibition at 2 μM” value is given as 99.95%.

Still in this test, the particulars now being: Hepatitis C virus, Huh-7, 72 h, 2 μM; Huh-7 HCV replicon cells, 3 days incubation; inhibition of viral replication; read-out: % inhibition at 2 μM.
As for `CC1=CCC(C(=O)N(c2cc(C#CC(C)(C)C)sc2C(=O)O)[C@H]2CC[C@](O)(CO[C@H]3CCOC3)CC2)[C@H](C)C1` (single isomer, unassigned) [Compound 5A, 5-(3,3-dimethyl-but-1-ynyl)-3-{(4,6R-dimethyl-cyclohex-3-enecarbonyl)-[4-hydroxy-4-(tetrahydro-furan-3-yloxymethyl)-cyclohexyl]-amino}-thiophene-2-carboxylic acid], the inhibition at 2 µM was found to be 100%.
Consider `CC(C)(C)C#Cc1cc(N(C(=O)[C@H]2CC[C@H](C)CC2)C2CCC(O)(COc3cccnc3)CC2)c(C(=O)O)s1` (stereo partly shown) [Compound 1, 5-(3,3-Dimethylbut-1-ynyl)-3-(N-(4-hydroxy-4-((pyridin-3-yloxy)methyl)cyclohexyl)-4-methylcyclohexanecarboxamido)thiophene-2-carboxylic acid], for which the inhibition at 2 µM is 99.9%.
Same read-out and setting: the result for `CC(C)(C)C#Cc1cc(N(C(=O)[C@H]2CC[C@H](C)CC2)[C@H]2CC[C@](O)(CO[C@@H]3CCOC3)CC2)c(C(=O)O)s1` [Compound 2, 5-(3,3-Dimethyl-but-1-ynyl)-3-[[4-hydroxy-4-(tetrahydrofuran-3R-yloxymethyl)-cyclohexyl]-(4-methyl-cyclohexanecarbonyl)-amino]-thiophene-2-carboxylic acid] reads 100%; that for `CC(C)(C)C#Cc1cc(N(C(=O)[C@H]2CC[C@H](C)CC2)[C@H]2CC[C@](O)(CO[C@H]3CCOC3)CC2)c(C(=O)O)s1` [Compound 3, 5-(3,3-Dimethyl-but-1-ynyl)-3-[[4-hydroxy-4-(tetrahydrofuran-3S-yloxymethyl)-cyclohexyl]-(4-methyl-cyclohexanecarbonyl)-amino]-thiophene-2-carboxylic acid], 100%; that for `CC(C)(C)C#Cc1cc(N(C(=O)[C@H]2CC[C@H](C)CC2)[C@H]2CC[C@@](O)(CO[C@H]3CCOC3)CC2)c(C(=O)O)s1` [Compound 4], 99.6%.
On the same count and under the same terms, in the case of `CC1=CCC(C(=O)N(c2cc(C#CC(C)(C)C)sc2C(=O)O)[C@H]2CC[C@](O)(CO[C@H]3CCOC3)CC2)[C@@H](C)C1` (stereo partly drawn) [Compound 6, 5-(3,3-dimethyl-but-1-ynyl)-3-{(4,6S-dimethyl-cyclohex-3-enecarbonyl)-[4-hydroxy-4-(tetrahydro-furan-3(S)-yloxymethyl)-cyclohexyl]-amino}-thiophene-2-carboxylic acid] it was 99.9%.
As to `CC1=CC[C@@H](C(=O)N(c2cc(C#CC(C)(C)C)sc2C(=O)O)[C@H]2CC[C@](O)(CO[C@@H]3CCOC3)CC2)CC1` [Compound 7], the inhibition at 2 µM was 100%.
Consider `CC1=CC[C@@H](C(=O)N(c2cc(C#CC(C)(C)C)sc2C(=O)O)[C@H]2CC[C@](O)(CO[C@H]3CCOC3)CC2)CC1` [Compound 8], for which the inhibition at 2 µM turned out to be 99.9%.
On the same count and under the same terms, in the case of `CC1=CC[C@H](C(=O)N(c2cc(C#CC(C)(C)C)sc2C(=O)O)[C@H]2CC[C@](O)(CO[C@H]3CCOC3)CC2)CC1` [Compound 9] it was 100%.
For `CC1=CC[C@H](C(=O)N(c2cc(C#CC(C)(C)C)sc2C(=O)O)[C@H]2CC[C@](O)(CO[C@@H]3CCOC3)CC2)CC1` [Compound 10], the inhibition at 2 µM amounted to 100%.
Regarding `COC(=O)c1sc(C#CC(C)(C)C)cc1N(C(=O)[C@H]1CC=C(C)C[C@@H]1C)[C@H]1CC[C@](O)(CO[C@H]2CCOC2)CC1` [Compound 17], the inhibition at 2 µM is 78.8%.
Same read-out and setting: the result for `CC1=CC[C@H](C(=O)N(c2cc(C#CC(C)(C)C)sc2C(=O)O)[C@H]2CC[C@](O)(CO[C@@H]3CCOC3)CC2)[C@@H](C)C1` [Compound 18] reads 100%; that for `[2H]C([2H])([2H])C(C#Cc1cc(N(C(=O)[C@H]2CC=C(C)CC2)C2CCC(O)(CO[C@H]3CCOC3)CC2)c(C(=O)O)s1)(C([2H])([2H])[2H])C([2H])([2H])[2H]` (stereo partly shown) [Compound 24], 100%; that for `CC1=CC[C@H](C(=O)N(c2cc(C#CC(C)(C)CO)sc2C(=O)O)[C@H]2CC[C@](O)(CO[C@H]3CCOC3)CC2)CC1` [Compound 29, 5-(4-hydroxy-3,3-dimethylbut-1-ynyl)-3-((R)-N-((1R,4S)-4-hydroxy-4-(((S)-tetrahydrofuran-3-yloxy)methyl)cyclohexyl)-4-methylcyclohex-3-enecarboxamido)thiophene-2-carboxylic acid], 100%.

Still in this test, the particulars now being: Hepatitis C virus, Huh-7, 72 h, read-out: % inhibition at 2 μM.
As for `CC1=CC[C@H](C(=O)N(c2cc(C#CC(C)(C)C)sc2C(=O)O)[C@H]2CC[C@](O)(CO[C@H]3CCOC3)CC2)[C@@H](C)C1` [Compound 16], the inhibition at 2 µM stood at 100%.
